Results reported in ChEMBL document CHEMBL5380808, “Design, Synthesis, and Biological Activity of Marinacarboline Analogues as STAT3 Pathway Inhibitors for Docetaxel-Resistant Triple-Negative Breast Cancer” (J Med Chem, 2023).
The source made the active and inactive calls. The rule behind the calls is not given here.

Experiments:
[1] = Antiproliferative activity against docetaxel-resistant human MDA-MB-231-DTR cells assessed as reduction in cell viability incubated for 72 hrs by sulforhodamine B assay; assay type: functional, cell-based; details: MDA-MB-231, 72 h
[2] = Fold resistance, ratio of IC50 for antiproliferative activity against docetaxel-resistant human MDA-MB-231-DTR cells to IC50 for antiproliferative activity against human MDA-MB-231 cells; assay type: functional
MDA-MB-231 [3] = assay: Antiproliferative activity against SiRNA mediated STAT3 knockdown docetaxel-resistant human MDA-MB-231-DTR cells assessed as restoration of drug sensitivity by measuring cell viability at 0.5 to 4 uM incubated for 72 hrs by MTT assay; assay type: functional, cell-based; details: dose 0.5-4 µM
MDA-MB-231 [4] = assay: Antiproliferative activity against human MDA-MB-231 cells transfected with STAT3 plasmid to overexpress STAT3 assessed as effect on cell viability at 10 to 80 nM incubated for 72 hrs by MTT assay; assay type: functional, cell-based; details: dose 10-80 nM
[5] = Synergistic antiproliferative activity against docetaxel-resistant human MDA-MB-231-DTR cells assessed as combination index at 1 uM incubated for 72 hrs in presence of 2 uM of N-(2-(1H-Indol-3-yl)ethyl)-1-(4-bromobenzoyl)-9H-pyrido(3,4-b)indole-3-carboxamide by Chou-Talalay method; assay type: functional
[6] = Synergistic antiproliferative activity against docetaxel-resistant human MDA-MB-231-DTR cells assessed as combination index at 1 uM incubated for 72 hrs in presence of 4 uM of N-(2-(1H-Indol-3-yl)ethyl)-1-(4-bromobenzoyl)-9H-pyrido(3,4-b)indole-3-carboxamide by Chou-Talalay method; assay type: functional
[7] = Synergistic antiproliferative activity against docetaxel-resistant human MDA-MB-231-DTR cells assessed as combination index at 1 uM incubated for 72 hrs in presence of 8 uM of N-(2-(1H-Indol-3-yl)ethyl)-1-(4-bromobenzoyl)-9H-pyrido(3,4-b)indole-3-carboxamide by Chou-Talalay method; assay type: functional
[8] = Synergistic antiproliferative activity against docetaxel-resistant human MDA-MB-231-DTR cells assessed as combination index at 2 uM incubated for 72 hrs in presence of 2 uM of N-(2-(1H-Indol-3-yl)ethyl)-1-(4-bromobenzoyl)-9H-pyrido(3,4-b)indole-3-carboxamide by Chou-Talalay method; assay type: functional
[9] = Synergistic antiproliferative activity against docetaxel-resistant human MDA-MB-231-DTR cells assessed as combination index at 2 uM incubated for 72 hrs in presence of 4 uM of N-(2-(1H-Indol-3-yl)ethyl)-1-(4-bromobenzoyl)-9H-pyrido(3,4-b)indole-3-carboxamide by Chou-Talalay method; assay type: functional
[10] = Synergistic antiproliferative activity against docetaxel-resistant human MDA-MB-231-DTR cells assessed as combination index at 2 uM incubated for 72 hrs in presence of 8 uM of N-(2-(1H-Indol-3-yl)ethyl)-1-(4-bromobenzoyl)-9H-pyrido(3,4-b)indole-3-carboxamide by Chou-Talalay method; assay type: functional
[11] = Synergistic antiproliferative activity against docetaxel-resistant human MDA-MB-231-DTR cells assessed as combination index at 4 uM incubated for 72 hrs in presence of 2 uM of N-(2-(1H-Indol-3-yl)ethyl)-1-(4-bromobenzoyl)-9H-pyrido(3,4-b)indole-3-carboxamide by Chou-Talalay method; assay type: functional
[12] = Synergistic antiproliferative activity against docetaxel-resistant human MDA-MB-231-DTR cells assessed as combination index at 4 uM incubated for 72 hrs in presence of 4 uM of N-(2-(1H-Indol-3-yl)ethyl)-1-(4-bromobenzoyl)-9H-pyrido(3,4-b)indole-3-carboxamide by Chou-Talalay method; assay type: functional
[13] = Synergistic antiproliferative activity against docetaxel-resistant human MDA-MB-231-DTR cells assessed as combination index at 4 uM incubated for 72 hrs in presence of 8 uM of N-(2-(1H-Indol-3-yl)ethyl)-1-(4-bromobenzoyl)-9H-pyrido(3,4-b)indole-3-carboxamide by Chou-Talalay method; assay type: functional
MDA-MB-231 [14] = assay: Antitumor activity against docetaxel-resistant human MDA-MB-231-DTR cells xenografted in BALB/c mouse assessed as tumor growth inhibition at 5 mg/kg, ip daily for 12 days; assay type: functional, organism-based; details: time 12.0 day
MDA-MB-231 [15] = assay: Antitumor activity against docetaxel-resistant human MDA-MB-231-DTR cells xenografted in BALB/c mouse assessed as reduction in tumor volume at 5 mg/kg, ip daily for 12 days in presence of N-(2-(1H-Indol-3-yl)ethyl)-1-(4-bromobenzoyl)-9H-pyrido(3,4-b)indole-3-carboxamide; assay type: functional, organism-based; details: time 12.0 day
MDA-MB-231 [16] = assay: Antitumor activity against docetaxel-resistant human MDA-MB-231-DTR cells xenografted in BALB/c mouse assessed as reduction in tumor weight at 5 mg/kg, ip daily for 12 days in presence of N-(2-(1H-Indol-3-yl)ethyl)-1-(4-bromobenzoyl)-9H-pyrido(3,4-b)indole-3-carboxamide; assay type: functional, organism-based; details: time 12.0 day
MDA-MB-231 [17] = assay: Antiproliferative activity against human MDA-MB-231 cells assessed as reduction in cell viability incubated for 72 hrs by MTT assay; assay type: functional, cell-based; details: MDA-MB-231, 72 h
[18] = Antiproliferative activity against docetaxel-resistant human MDA-MB-231-DTR cells assessed as reduction in cell viability incubated for 72 hrs by MTT assay; assay type: functional, cell-based; details: MDA-MB-231, 72 h

SMILES: CC(=O)O[C@@]12CO[C@@H]1C[C@H](O)[C@@]1(C)C(=O)[C@H](O)C3=C(C)[C@@H](OC(=O)[C@H](O)[C@@H](NC(=O)OC(C)(C)C)c4ccccc4)C[C@@](O)([C@@H](OC(=O)c4ccccc4)[C@H]21)C3(C)C [DOCETAXEL ANHYDROUS]
- IC50 [1]: 1980 nM
- Ratio IC50 [2]: 103.5
- Activity (MDA-MB-231 [3]): Active
- Activity (MDA-MB-231 [4]): inactive
- CI [5]: 0.26
- CI [6]: 0.38
- CI [7]: 0.66
- CI [8]: 0.23
- CI [9]: 0.53
- CI [10]: 0.45
- CI [11]: 0.32
- CI [12]: 0.37
- CI [13]: 0.32
- Activity (MDA-MB-231 [14]): inactive
- Activity (MDA-MB-231 [15]): Active
- Activity (MDA-MB-231 [16]): Active
- IC50 (MDA-MB-231 [17]): 20 nM
- IC50 [18]: 4680 nM
